One test has as its target mouse TAAR1 (Mus musculus (Mouse), UniProt Q923Y8). Kind of test: Radioligand binding assay on mouse TAAR1. In outline:
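Displacement of the tritiated oxazol-2-ylamine radioligand was measured by filtration and scintillation counting after 1 h incubation at 4 °C. Test concentrations ran 10 pM–10 μM in duplicate, with 10 μM cold ligand giving nonspecific binding. The receptor source was membranes of a stable mouse TAAR1 HEK293 line.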

In another test the target is rat TAAR1 (Rattus norvegicus (Rat), UniProt Q923Y9). Kind of test: Radioligand binding assay on rat TAAR1. The method, boiled down: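 Membranes from HEK293 cells stably expressing rat TAAR1, with Kd checked per batch by saturation. Competition with ³H-(S)-4-[(ethyl-phenyl-amino)-methyl]-4,5-dihydro-oxazol-2-ylamine, compounds 10 pM–10 μM in duplicate, 1 hr at 4 °C. Filtration then scintillation counting; nonspecific binding defined with 10 μM unlabeled ligand.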
Sequence of rat TAAR1 (Q923Y9 whole entry): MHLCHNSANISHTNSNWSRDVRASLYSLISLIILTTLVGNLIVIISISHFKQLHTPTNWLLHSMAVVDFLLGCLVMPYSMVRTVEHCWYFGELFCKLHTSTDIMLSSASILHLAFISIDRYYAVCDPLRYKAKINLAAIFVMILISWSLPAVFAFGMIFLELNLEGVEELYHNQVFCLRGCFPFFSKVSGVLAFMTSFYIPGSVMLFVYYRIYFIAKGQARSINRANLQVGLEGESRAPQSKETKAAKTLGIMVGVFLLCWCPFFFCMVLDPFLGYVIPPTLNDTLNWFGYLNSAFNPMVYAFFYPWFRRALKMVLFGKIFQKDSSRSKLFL

The mark [1] stands for this setting: mouse TAAR1, HEK-293 membranes, first value of cell mouse/rat, read-out: Ki (μM) mouse.
Setting [2] is: rat TAAR1, HEK-293 membranes, second value of cell mouse/rat, read-out: Ki (μM) rat.

From US9452980B2, “Substituted benzamides” (Hoffmann-La Roche Inc., priority 2009, dated 2016) come the findings set out here.

Each structure is given as a SMILES string. Where a name gives a salt, the structure may show the parent alone. Read-outs that look alike come from different tables or passages of the source.

Sequence of mouse TAAR1 (Q923Y8 whole entry): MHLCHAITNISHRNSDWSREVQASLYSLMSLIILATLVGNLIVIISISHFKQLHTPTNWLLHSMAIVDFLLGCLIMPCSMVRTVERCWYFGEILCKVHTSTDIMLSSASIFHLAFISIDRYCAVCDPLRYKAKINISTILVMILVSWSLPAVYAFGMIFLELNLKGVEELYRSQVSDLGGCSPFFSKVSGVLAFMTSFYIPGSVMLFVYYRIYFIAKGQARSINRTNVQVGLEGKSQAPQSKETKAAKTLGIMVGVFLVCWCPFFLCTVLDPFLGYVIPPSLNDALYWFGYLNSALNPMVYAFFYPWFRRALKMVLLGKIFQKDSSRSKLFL

Broadly, the Ki is a measure of affinity in units of concentration, obtained from inhibition or displacement. For `O=C(Nc1ccc(CCC2CCNC2)cc1)c1ncc(F)cc1F` (racemic) [Example 133, (RS)-3,5-Difluoro-pyridine-2-carboxylic acid [4-(2-pyrrolidin-3-yl-ethyl)-phenyl]-amide hydrochloride], the inhibition constant Ki on mouse TAAR1 (setting [1]) was determined as 1.52 µM; at rat TAAR1 (setting [2]) it was 0.0174 µM.

Regarding `O=C(Nc1ccc(CCC2CCCNC2)cc1)c1ncccc1F` (racemic) [Example 134, (RS)-3-Fluoro-pyridine-2-carboxylic acid [4-(2-piperidin-3-yl-ethyl)-phenyl]-amide hydrochloride], the results for the Ki on mouse TAAR1 (setting [1]) and on rat TAAR1 (setting [2]) were 2.06 µM and 0.106 µM, respectively.

Regarding `O=C(Nc1ccc(CCC2CCCNC2)cc1)c1ncc(F)cc1F` (racemic) [Example 135, (RS)-3,5-Difluoro-pyridine-2-carboxylic acid [4-(2-piperidin-3-yl-ethyl)-phenyl]-amide hydrochloride], the Ki at mouse TAAR1 (setting [1]) came out at 1.27 µM; at rat TAAR1 (setting [2]), 0.0134 µM.

Turning to `O=C(Nc1ccc(C(=O)C2CCNC2)cc1)c1ccc(Cl)cc1` (racemic) [Example 136, (RS)-4-Chloro-N-[4-(pyrrolidine-3-carbonyl)-phenyl]-benzamide hydrochloride], the figures for the Ki at mouse TAAR1 and on rat TAAR1 were 0.153 µM and 0.0008 µM, respectively.

Regarding `CCCc1ccc(C(=O)Nc2ccc(C3CCCNC3)cc2)cc1` (racemic) [Example 137, (RS)—N-(4-Piperidin-3-yl-phenyl)-4-propyl-benzamide hydrochloride], the inhibition constant (Ki) was 0.0062 µM on mouse TAAR1 (setting [1]) and 0.0015 µM at rat TAAR1 (setting [2]).

`O=C(Nc1ccc(C2CCCNC2)cc1)c1ccc(C(F)(F)F)cn1` (racemic) [Example 138, (RS)-5-Trifluoromethyl-pyridine-2-carboxylic acid (4-piperidin-3-yl-phenyl)-amide hydrochloride]: the figures for the inhibition constant (Ki) at mouse TAAR1 (setting [1]) and at rat TAAR1 (setting [2]) were 0.035 µM and 0.0059 µM, respectively.

On to `O=C(Nc1ccc(C2CCNC2)cc1)c1ccc(C(F)(F)F)cn1` (racemic) [Example 139, (RS)-5-Trifluoromethyl-pyridine-2-carboxylic acid (4-pyrrolidin-3-yl-phenyl)-amide hydrochloride], for which the Ki on mouse TAAR1 (setting [1]) was determined as 0.0158 µM; at rat TAAR1 (setting [2]) it was 0.0051 µM.

`O=C(Nc1ccc(C2CCNC2)nc1)c1ccc(Cl)cc1` (racemic) [Example 140, (RS)-4-Chloro-N-(6-pyrrolidin-3-yl-pyridin-3-yl)-benzamide]: the Ki was determined as 0.245 µM at mouse TAAR1 (setting [1]) and 0.0358 µM on rat TAAR1 (setting [2]).

For `O=C(Nc1ccc(C2CNCCO2)cc1)c1ccc(C(F)(F)F)cn1` (racemic) [Example 141, (RS)-5-Trifluoromethyl-pyridine-2-carboxylic acid (4-morpholin-2-yl-phenyl)-amide hydrochloride], the figures for the inhibition constant (Ki) at mouse TAAR1 (setting [1]) and at rat TAAR1 (setting [2]) were 0.0201 µM and 0.0024 µM, respectively.

As to `O=C(Nc1ccc(CCC2CCCN2)cc1)c1ccc(Cl)cc1` (racemic) [Example 142, (RS)-4-Chloro-N-[4-(2-pyrrolidin-2-yl-ethyl)-phenyl]-benzamide hydrochloride], the inhibitory constant (Ki) was 0.0126 µM at mouse TAAR1 (setting [1]) and 0.0004 µM at rat TAAR1 (setting [2]).

`O=C(Nc1ccc(C2CNCCO2)cc1)c1ccc(Cl)cc1F` (racemic) [Example 146, (RS)-4-Chloro-2-fluoro-N-(4-morpholin-2-yl-phenyl)-benzamide hydrochloride]: the values for the inhibitory constant (Ki) on mouse TAAR1 (read-out: Ki (μM) mouse) and at rat TAAR1 (setting [2]) were 0.0268 µM and 0.001 µM, respectively.

In the case of `O=C(Nc1ccc(CC2CCNC2)cc1)c1ccc(Cl)cc1` (racemic) [Example 149, (RS)-4-Chloro-N-(4-pyrrolidin-3-ylmethyl-phenyl)-benzamide hydrochloride], the Ki on mouse TAAR1 (setting [1]) came to 0.0011 µM; on rat TAAR1 (setting [2]), 0.001 µM.

In the case of `O=C(Nc1ccc(CCC2CCCN2)cc1)c1ccc(Cl)c(Cl)c1` (racemic) [Example 154, (RS)-3,4-Dichloro-N-[4-(2-pyrrolidin-2-yl-ethyl)-phenyl]-benzamide hydrochloride], the Ki on mouse TAAR1 (setting [1]) was determined as 0.0082 µM; at rat TAAR1 (setting [2]) it was 0.0002 µM.

In the case of `O=C(Nc1ccc(CCC2CCCN2)cc1)c1ccc(C(F)(F)F)cc1` (racemic) [Example 155, (RS)—N-[4-(2-Pyrrolidin-2-yl-ethyl)-phenyl]-4-trifluoromethyl-benzamide hydrochloride], the inhibition constant Ki at mouse TAAR1 (setting [1]) worked out at 0.0107 µM; at rat TAAR1 (setting [2]), 0.0009 µM.

Turning to `O=C(Nc1ccc(CCC2CCCN2)cc1)c1ccc(F)cc1` (racemic) [Example 156, (RS)-4-Fluoro-N-[4-(2-pyrrolidin-2-yl-ethyl)-phenyl]-benzamide hydrochloride], the inhibition constant Ki at mouse TAAR1 (setting [1]) amounted to 0.153 µM; on rat TAAR1 (setting [2]), 0.002 µM.

Turning to `O=C(Nc1ccc(CCC2CCCN2)cc1)c1cccc(Cl)c1` (racemic) [Example 157, (RS)-3-Chloro-N-[4-(2-pyrrolidin-2-yl-ethyl)-phenyl]-benzamide], the Ki on mouse TAAR1 (setting [1]) was determined as 0.142 µM; on rat TAAR1 (setting [2]), 0.0007 µM.

As for `CCOc1ccc(C(=O)Nc2ccc(CCC3CCCN3)cc2)cc1` (racemic) [Example 158, (RS)-4-Ethoxy-N-[4-(2-pyrrolidin-2-yl-ethyl)-phenyl]-benzamide hydrochloride], the inhibition constant Ki at mouse TAAR1 (setting [1]) came to 0.0326 µM; on rat TAAR1 (setting [2]) it was 0.0014 µM.

Regarding `O=C(Nc1ccc(C2CCCCN2)cc1)c1ccc(Cl)cc1` (racemic) [Example 159, (RS)-4-Chloro-N-(4-piperidin-2-yl-phenyl)-benzamide hydrochloride], the Ki is 6.38 µM on mouse TAAR1 (setting [1]) and 0.63 µM at rat TAAR1 (setting [2]).

Consider `O=C(Nc1ccc(C2CCCNC2)cc1)c1cnc(Cl)cn1` (racemic) [Example 160, (RS)-5-Chloro-pyrazine-2-carboxylic acid (4-piperidin-3-yl-phenyl)-amide hydrochloride], for which the Ki on mouse TAAR1 (setting [1]) was determined as 0.0851 µM; on rat TAAR1 (setting [2]) it was 0.0046 µM.

On to `O=C(Nc1ccc(C2CCNC2)cc1)c1cnc(Cl)cn1` (racemic) [Example 163, (RS)-5-Chloro-N-(4-(pyrrolidin-3-yl)phenyl)pyrazine-2-carboxamide hydrochloride], for which the Ki amounted to 0.0573 µM on mouse TAAR1 (setting [1]) and 0.0121 µM at rat TAAR1 (setting [2]).

Take `O=C(Nc1ccc(CCC2CCCN2)cc1)c1cnc(Cl)cn1` (racemic) [Example 164, (RS)-5-Chloro-N-(4-(2-(pyrrolidin-2-yl)ethyl)phenyl)pyrazine-2-carboxamide hydrochloride]: the inhibitory constant (Ki) at mouse TAAR1 (setting [1]) stood at 0.0871 µM; on rat TAAR1 (setting [2]), 0.0121 µM.

In the case of `N#Cc1ccc(C(=O)Nc2ccc(C3CCNC3)cc2)nc1` (racemic) [Example 165, (RS)-5-Cyano-N-(4-(pyrrolidin-3-yl)phenyl)picolinamide hydrochloride], the Ki was determined as 0.126 µM on mouse TAAR1 (setting [1]) and 0.0411 µM on rat TAAR1 (setting [2]).

As for `O=C(Nc1ccc(CCC2CCCN2)cc1)c1ccc(F)cn1` (racemic) [Example 166, (RS)-5-Fluoro-N-(4-(2-(pyrrolidin-2-yl)ethyl)phenyl)picolinamide hydrochloride], the Ki at mouse TAAR1 (setting [1]) was found to be 0.394 µM; on rat TAAR1 (setting [2]), 0.0212 µM.

On to `O=C(Nc1ccc(CCC2CCCCN2)cc1)c1ccc(Cl)cc1` (racemic) [Example 169, (RS)-4-Chloro-N-(4-(2-(piperidin-2-yl)ethyl)phenyl)benzamide hydrochloride], for which the values for the inhibition constant (Ki) at mouse TAAR1 (setting [1]) and on rat TAAR1 (setting [2]) were 0.0607 µM and 0.0027 µM, respectively.

Regarding `O=C(Nc1ccc(CCC2CCCCN2)cc1)c1ccc(F)cc1` (racemic) [Example 170, (RS)-4-Fluoro-N-(4-(2-(piperidin-2-yl)ethyl)phenyl)benzamide hydrochloride], the figures for the Ki on mouse TAAR1 (setting [1]) and at rat TAAR1 (setting [2]) were 0.234 µM and 0.0158 µM, respectively.

Turning to `O=C(Nc1ccc(CCC2CCCCN2)cc1)c1ccc(Cl)cn1` (racemic) [Example 171, (RS)-5-Chloro-N-(4-(2-(piperidin-2-yl)ethyl)phenyl)picolinamide hydrochloride], the Ki at mouse TAAR1 (setting [1]) is 0.198 µM; at rat TAAR1 (setting [2]) it was 0.0101 µM.

`CCOc1ccc(C(=O)Nc2ccc(CCC3CCCN3)cc2)nc1` (racemic) [Example 172, (RS)-5-Ethoxy-N-(4-(2-(pyrrolidin-2-yl)ethyl)phenyl)picolinamide hydrochloride]: the inhibition constant (Ki) on mouse TAAR1 (setting [1]) worked out at 0.113 µM; at rat TAAR1 (setting [2]), 0.0077 µM.

Turning to `O=C(Nc1ccc(CCC2CCCCN2)cc1)c1ccc(Cl)nc1` (racemic) [Example 173, (RS)-6-Chloro-N-(4-(2-(piperidin-2-yl)ethyl)phenyl)nicotinamide hydrochloride], the inhibition constant Ki was 0.824 µM at mouse TAAR1 (setting [1]) and 0.0218 µM on rat TAAR1 (setting [2]).

In the case of `O=C(Nc1ccc(CCC2CCCCN2)cc1)c1cnc(Cl)cn1` (racemic) [Example 174, (RS)-5-Chloro-N-(4-(2-(piperidin-2-yl)ethyl)phenyl)pyrazine-2-carboxamide hydrochloride], the Ki on mouse TAAR1 (setting [1]) amounted to 0.437 µM; at rat TAAR1 (setting [2]) it was 0.0159 µM.

Regarding `O=C(Nc1ccc(CCC2CCCCN2)cc1)c1ccc(C(F)(F)F)cc1` (racemic) [Example 175, (RS)—N-(4-(2-(Piperidin-2-yl)ethyl)phenyl)-4-(trifluoromethyl)benzamide hydrochloride], the inhibition constant (Ki) was 0.0473 µM at mouse TAAR1 (setting [1]) and 0.0027 µM at rat TAAR1 (setting [2]).

`O=C(Nc1ccc(CCC2CCCCN2)cc1)c1ccc(Cl)c(Cl)c1` (racemic) [Example 176, (RS)-3,4-Dichloro-N-(4-(2-(piperidin-2-yl)ethyl)phenyl)benzamide hydrochloride]: the Ki on mouse TAAR1 (setting [1]) was 0.0253 µM; on rat TAAR1 (setting [2]) it was 0.001 µM.

As to `C#Cc1ccc(C(=O)Nc2ccc(CCC3CCCCN3)cc2)cc1` (racemic) [Example 177, (RS)-4-Ethynyl-N-(4-(2-(piperidin-2-yl)ethyl)phenyl)benzamide hydrochloride], the inhibition constant (Ki) at mouse TAAR1 (setting [1]) stood at 0.114 µM; at rat TAAR1 (setting [2]), 0.0067 µM.

For `O=C(Nc1ccc(C2CCCNC2)cc1)c1ccc(OCC(F)(F)F)nc1` (racemic) [Example 178, (RS)—N-(4-(Piperidin-3-yl)phenyl)-6-(2,2,2-trifluoroethoxy)nicotinamide hydrochloride], the Ki was 0.0032 µM on mouse TAAR1 (setting [1]) and 0.002 µM on rat TAAR1 (setting [2]).
